From EP1077942B1, “CARBOXY SUBSTITUTED CARBOXAMIDE DERIVATIVES AS TACHYKININ RECEPTOR ANTAGONISTS” (Aventis Pharmaceuticals Inc., priority 1998, dated 1999)
Counter-ions that a name gives are not always drawn.

What was measured:
[1] = target: T1, NK1 receptor (Cavia porcellus, UniProt P30547); experiment: Antagonism of iodinated tachykinin binding to NK1 receptor (Example A); details: guinea pig lungs membranes; 125I-Bolton Hunter Lys-3 labeled substance P 0.1 nM; mean of several experiments
T1 construct: evaluated in guinea pig lungs (Keystone Biologicals, Cleveland, OH); tissue Keystone Biologicals, Cleveland, OH; host or cells: guinea pig lung membrane homogenate
Description: (§1) Antagonism of iodinated tachykinin binding to NK1 and NK2 receptors by putative antagonists
(§2) One skilled in the art can determine the NK1 receptor and NK2 receptor affinity in vitro as follows. The NK1 receptor affinity of tachykinin antagonists is evaluated in guinea pig lungs (Keystone Biologicals, Cleveland, OH) and affinity for the NK2 receptor is evaluated in HSKR-1 cells (which are mouse 3T3 fibroblasts expressing the human jejunal NK2 receptor). Tissues or cells are homogenized with a Polytron in 15 volumes of 50 mM Tris-HCl buffer (pH 7.4, 4°C) and centrifuged. The pellet is resuspended in Tris-HCl buffer and is centrifuged; the pellet is washed twice by resuspension. The final pellet is resuspended at a concentration of 40 mg/ml for tissues and 20 mg/ml for cells in incubation buffer and remains at room temperature for at least 15 min prior to use. […] Filter bound radioactivity is quantitated in a gamma counter. Nonspecific binding is defined as binding in the presence of 1 µM substance P or neurokinin A. Specific binding is calculated by subtracting nonspecific binding from total binding. Competition of iodinated SP or NKA binding by test compounds or standards is expressed as a percentage of this maximum binding. […]

[2] = target: T2, human jejunal NK2 receptor (Homo sapiens, UniProt P21452); experiment: Antagonism of iodinated tachykinin binding to NK2 receptor (Example A); details: HSKR-1 cells (mouse 3T3 fibroblasts expressing the human jejunal NK2 receptor); 125 iodohistidyl-1-neurokinin A 0.1 nM; mean of several experiments
T2 construct: expressed in transfected cells; host or cells: HSKR-1 cells (mouse 3T3 fibroblasts)
T2 sequence (P21452 1-398): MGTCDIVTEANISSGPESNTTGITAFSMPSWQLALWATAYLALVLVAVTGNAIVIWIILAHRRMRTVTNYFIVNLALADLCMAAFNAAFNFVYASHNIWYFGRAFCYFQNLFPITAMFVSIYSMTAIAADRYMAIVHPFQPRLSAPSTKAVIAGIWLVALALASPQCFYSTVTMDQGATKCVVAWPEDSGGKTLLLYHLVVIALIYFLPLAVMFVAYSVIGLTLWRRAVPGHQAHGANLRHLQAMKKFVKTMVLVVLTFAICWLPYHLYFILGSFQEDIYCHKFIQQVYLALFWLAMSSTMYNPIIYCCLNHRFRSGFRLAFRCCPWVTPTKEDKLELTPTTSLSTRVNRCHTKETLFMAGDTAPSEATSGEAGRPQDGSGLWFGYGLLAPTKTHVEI
Description: as §1, §2

T1 sequence (P30547 whole entry): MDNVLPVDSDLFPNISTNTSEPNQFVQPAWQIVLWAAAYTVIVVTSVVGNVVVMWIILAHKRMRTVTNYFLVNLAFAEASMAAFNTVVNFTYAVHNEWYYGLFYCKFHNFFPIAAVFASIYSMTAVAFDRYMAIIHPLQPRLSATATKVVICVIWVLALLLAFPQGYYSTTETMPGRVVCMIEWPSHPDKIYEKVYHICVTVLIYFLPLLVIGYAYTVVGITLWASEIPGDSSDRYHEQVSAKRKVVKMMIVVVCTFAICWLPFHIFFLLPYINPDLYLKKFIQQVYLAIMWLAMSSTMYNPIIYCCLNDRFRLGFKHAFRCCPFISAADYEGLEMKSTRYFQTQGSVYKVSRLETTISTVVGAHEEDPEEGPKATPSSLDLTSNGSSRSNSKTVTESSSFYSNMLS

**Q.** With `CCOC(=O)CN1CCN(C(=O)C2(c3ccccc3)CCN(CC[C@H](CN(C)C(=O)c3cc(-n4cnnn4)ccc3OC)c3ccc(Cl)c(Cl)c3)CC2)CC1` [Example 1.2, (S)-N-methyl-N-(4-(4-phenyl-4-((4-carboethoxymethylpiperazin-1-yl)carboxamido)piperidin-1-yl) 2-(3,4-dichlorophenyl)butyl)-2-methoxy-5-(1H-tetrazol-1-yl)benzamide hydrochloric acid salt] as the molecule, how does the IC50 [1] read?
**A.** 23 nM

**Q.** And the IC50 [2]?
**A.** 178 nM
